Data: US20230220331A1, “TEMPORARY TREATMENT MEDIUM, TREATMENT KIT, EMBRYOGENESIS ARREST INHIBITOR, EMBRYOGENESIS ARREST INHIBITORY METHOD, DEVELOPMENTAL ENGINEERING PRODUCT PREPARATION METHOD, TRANSPLANTATION METHOD, THERAPEUTIC METHOD, AND DEVELOPMENTAL ENGINEERING PRODUCT” (priority 2020, published 2023)

Assays:
[1] = system: frozen embryos of the inbred mouse B6J strain (blastocyst stage); assay: Surviving embryos after re-freezing and thawing of blastocysts (Treatment Example 9); format: cell-based
Protocol: Then, in the early embryos of the inbred mouse B6J strain, an example of using frozen embryos preserved at the blastocyst stage, using the normal medium or the temporary treatment medium according to the present embodiment before and after the manipulation, and comparing whether the occurrence changes is described. In this treatment example, as the temporary treatment medium, a Y-27632-added mWM medium so as to be 10 μM was used (in this example, it is referred to as “Y+ medium”). In addition, as the normal medium, an mWM medium to which Y-27632 was not added was used (In this example, it is referred to as “Y− medium”). As a treatment, the prepared frozen embryos were thawed and developed as they were in Y− medium until the blastocyst stage. Then, half of the embryos that had developed up to the blastocyst were transferred to Y+ medium and placed for 30 minutes. After that, the embryos were transferred to Y− medium again and placed for 30 minutes. Then, the embryos treated with Y+ medium and the embryos not treated were frozen in one tube, respectively. Both tubes of embryos were then thawed and placed in the normal medium for 10 minutes. Then, the embryos were evenly divided into Y+ medium and Y− medium, respectively, and placed for 1 hour. Then, again, each tube of embryos was returned to Y− medium in each tube and the embryos were observed. […]

[2] = system: early embryos of immunodeficient mouse NOD-scid; assay: Genome editing efficiency of multiple targets (Treatment Example 19); format: cell-based; conditions: Bbox1, IL2RG, 4 target sites
Protocol: Electroporation (genome editing) of high-concentration RNA-protein mixed with CRISPR-Cas9 at multiple sites (4 sites in total) of a plurality of genes in early embryos of immunodeficient mice, which are extremely difficult to manipulate and prepare, was performed, transplanted into the recipient's uterus, and the offspring were obtained.

[3] = system: inbred mouse B6J embryos; assay: Generation of Flox inbred mice (individuals) by two-step method (Treatment Example 11); format: cell-based
Protocol: 1. Up to 3 hours before TAKE, Y-27632-added mWM medium (Y-27632 final concentration 10 μM, an example of the “temporary treatment medium” of this example), Y-27632-free mWM medium (an example of “normal medium” of this example), 5 drops of each medium were dropped on 35 mm Petri dish, and then covered with paraffin oil. For the drops, twice the number of the drops plates to be performed TAKE were prepared.
2. Pronuclear stage embryos were collected, placed in Y-27632-added mWM medium, and cultured for about 30 minutes to 1 hour (temporary treatment).
3. After that, the first TAKE was performed.
3a. In the case of frozen eggs, after the first TAKE, they were placed in a Y-27632-added mWM medium and cultured for about 30 minutes to 1 hour (temporary treatment).
3b. In the case of unfrozen eggs, after the first TAKE, they were placed in a Y-27632-added mWM medium and cultured under 37° C. and 5% CO2 (5% O2) conditions until the next day (temporary treatment).
4. After the temporary treatment, the embryos were placed in Y-27632-free mWM medium and cultured at 37° C. and 5% CO2 (5% O2) conditions until the next day.
5. Both were confirmed at the next day, and the embryos at the 2-cell stage were subjected to the second TAKE.
6. After the second TAKE, the embryos were placed in Y-27632-added mWM medium and cultured for about 30 minutes to 1 hour (temporary treatment).
7. Then, they were transferred to Y-27632-free mWM medium. If necessary, culture was continued or embryo transfer was performed.
By using an inbred mouse (B6J in B6 strain) different from the inbred mouse of the treatment example 2 according to the first embodiment, knock-in is performed by the same two-step method as the above-mentioned treatment example 2, and further individual preparation is performed.

[4] = system: C57BL/6J blastocysts; assay: Developmental efficiency of frozen embryo transfer (Treatment Example 18); format: cell-based, mouse; conditions: C57BL/6J freeze-thawed blastocysts, 38 embryos transferred
Protocol: Specifically, in the blastocysts of C57BL/6J mice, a freeze-thaw manipulation was performed by using the above-mentioned temporary treatment medium by using Y-27632 or the normal medium as control. Further, an average of 20 blastocysts per recipient (MCH mouse) was transplanted into the uterus. The newborn was delivered by Caesarean section (CS), and the number of implantation marks and the number of newborns were confirmed. Weaning mice were suckled by foster parents, the number of weaning mice was confirmed, and the weaning survival rate was calculated. In addition, the embryo medium was used based on the mWM medium.

[5] = system: thawed 2-cell stage embryos of heterologous inbred SPR2 mouse; assay: Individuals by embryo transfer after freeze-thaw and electroporation (Treatment Example 5); format: cell-based, Mus spretus
Protocol: 1. Up to 3 hours before TAKE, Y-27632-added mWM medium (Y-27632 final concentration 10 μM, an example of the “temporary treatment medium” of this example), Y-27632-free mWM medium (an example of “normal medium” of this example) were dropped into 35 mm Petri dishes by 5 drops, respectively, to prepare drops covered with paraffin oil.
2. Two-cell stage embryos were collected from the drops or thawed, placed in Y-27632-added mWM medium, and cultured for about 30 minutes to 1 hour (temporary treatment).
3. After that, TAKE was performed.
4. After TAKE, the embryos were placed in Y-27632-added mWM medium and cultured for about 30 minutes to 1 hour (temporary treatment). Then, the embryos were placed in Y-27632-free mWM medium and cultured at 37° C. under 5% CO2 and 5% O2 conditions until transplantation.
Next, the effect of the temporary treatment medium of this example on the heterologous inbred SPR2 mouse, which cannot obtain the individual by embryo transfer after freeze-thaw and electroporation, was measured.
In the heterologous inbred SPR2 mouse, the thawed 2-cell stage embryos that were cultured in the temporary treatment medium of this example for the specific period before and after electroporation were used, […], and 7 individuals were able to be obtained. […]

[6] = Y+ before freezing and Y+ after thawing, 26 embryos
[7] = Y+ before freezing, Y− after thawing, 26 embryos
[8] = Y− before freezing, Y+ after thawing, 20 embryos
[9] = floxed Mecp2 2STEP (HIGH CONCENTRATION)

SMILES: C[C@@H](N)[C@H]1CC[C@H](C(=O)Nc2ccncc2)CC1 [Y-27632, trans-4-[(1R)-1-Aminoethyl]-N-4-pyrid inylcyclohexanecarboxamide]
- NUMBER OF OUTGROWTH, 24 hours after thawing [1, 6]: (11)
- surviving embryos 3 HOURS AND A HALF AFTER THAWING [1, 6]: 12
- surviving embryos 24 HOURS AFTER THAWING [1, 6]: 24
- surviving embryos IMMEDIENTLY AFTER THAWING [1, 6]: 7
- RECOVERY RATE ([1]; Y+ before freezing and Y+ after thawing, 26 embryos, frozen twice, listed as Y+): 92%
- RECOVERY RATE ([1]; Y+ before freezing and Y+ after thawing, 26 embryos, frozen twice, listed as Y+ medium): up to 92%
- NUMBER OF OUTGROWTH, 24 hours after thawing [1, 7]: (7)
- RECOVERY RATE [1, 7]: 70%
- surviving embryos 3 HOURS AND A HALF AFTER THAWING [1, 7]: 11
- surviving embryos 24 HOURS AFTER THAWING [1, 7]: 14
- surviving embryos IMMEDIENTLY AFTER THAWING [1, 7]: 6
- NUMBER OF OUTGROWTH, 24 hours after thawing [1, 8]: (3)
- RECOVERY RATE [1, 8]: 55%
- surviving embryos 3 HOURS AND A HALF AFTER THAWING [1, 8]: 5
- surviving embryos 24 HOURS AFTER THAWING [1, 8]: 11
- surviving embryos IMMEDIENTLY AFTER THAWING ([1]; Y− before freezing, Y+ after thawing, 20 embryos, Y-27632 10 μM): 3
- KO % ([2]; 47 embryos transferred): 57%
- Pups ([2]; 47 embryos transferred): 7
- Pups (KO) ([2]; 47 embryos transferred): 4
- KO % ([2]; 49 embryos transferred): 100%
- Pups ([2]; 49 embryos transferred): 2 (2)
- Pups (KO) ([2]; 49 embryos transferred): 2 (2)
- Flox individuals % ([3]; floxed Drb1 2STEP): 2.6%
- NUMBER OF FLOX INDIVIDUALS ([3]; floxed Drb1 2STEP): 1/39
- Flox individuals % [3, 9]: 3.9%
- NUMBER OF FLOX INDIVIDUALS [3, 9]: 2/51
- Implantation mark [4]: 13
- Weaning (number of weaning mice) [4]: 10
- Weaning survival rate [4]: 100%
- Pups (CS) ([4]; Caesarean section): 10
- individuals obtained ([5]; SPR2 thawed 2-cell embryos, treated before and after electroporation, 17 2-cell embryos transplanted into the oviduct): 7
- individuals obtained ([5]; SPR2 thawed, electroporated, 16 blastocysts transplanted into the uterus 3.5 days after plug): 5
